Data as given in patent US20210395239A1 (Hoffmann-La Roche Inc., priority 2018, published 2021).
pIC50: −log10 of the molar value.

Key:
[1] = target: T1, CYP2C9 (Homo sapiens, UniProt P11712); assay: CYP inhibition assay in human liver microsome, CYP2C9; type: in vitro ADME; settings: human, human liver microsomes, probe diclofenac 5 μM, substrate diclofenac 5 μM, first value of 2C9/2D6/3A4
T1 construct: tissue BD-Gentest 452117; host or cells: human liver microsomes
Method: (§1) This is a high throughput screening assay used for assessment of reversible inhibition of CYP2C9, CYP2D6, and CYP3A4 activity of test compounds in human liver microsome (HLM) in early discovery stage.
(§2) 10 mM DMSO stock solutions of test compounds were diluted in DMSO to generate 2 mM intermediate stock solution. 250 nL, of intermediate stock solution were transferred in duplicate into 3 separate 384 well microtitre plates (assay-ready plates). A mixture of HLM and each substrate was made up. 45 μL of HLM substrate mix was then transferred to each well of an assay ready plate and mixed. The negative (solvent) and positive controls (standard inhibitor for each CYP) were included in each assay ready plate. The assay ready plate was warmed to 37° C. in an incubator over 10 minutes. 5 μL pre-warmed NADPH regenerating system was added to each incubation well to start the reaction. Final incubation volume was 50 μL. The assay plate then was placed back in the 37° C. incubator. After incubation (10 minutes for CYP2D6) for 5 minutes, incubates were quenched by addition of 50 μL 100% acetonitrile containing internal standards (400 ng/mL 13C6-4′-OH-Diclofenac, 20 ng/mL D3-Dextrorphan and 20 ng/mL D4-1′OH-Midazolam). The supernatants were collected for RapidFire/MS/MS analysis.
(§3) RapidFire online solid phase extraction/sample injection system (Agilent) coupled with API4000 triple quadrupole mass spectrometer (AB Sciex) were used for sample analysis. The mobile phase composed of acetonitrile and water supplemented with 0.1% formic acid. A C4 solid phase extraction cartridge is used for sample separation. MS detection is achieved in positive ion MRM mode.
(§4) Peak areas for substrate, metabolite and internal standard are determined using the RapidFire integrator software (version 3.6.12009.12296). Peak area ratios (PAR) of metabolite and internal standard (stable-labelled metabolite) are then calculated. The measurement window for each experiment is then defined:
(§5) PAR (0% activity)=average PAR for all incubations containing concentrated inhibitor; Par (100% activity)=average PAR for all incubations containing no inhibitor (DMSO controls); % Activity (test inhibitor)=[PAR (test inhibitor)−PAR (0% activity)]/[PAR (100% activity)−PAR (0% activity)]; % Inhibition (test inhibitor)=100-% Activity (test inhibitor).

[2] = target: T2, CYP2D6 (Homo sapiens, UniProt P10635); assay: CYP inhibition assay in human liver microsome, CYP2D6; type: in vitro ADME; settings: human, human liver microsomes, probe dextromethorphan 5 μM, substrate dextromethorphan 5 μM, second value of 2C9/2D6/3A4
T2 construct: tissue BD-Gentest 452117; host or cells: human liver microsomes
Method: as §1, §2, §3, §4, §5

[3] = target: T3, hERG channel (Homo sapiens, UniProt Q12809); assay: hERG channel inhibition assay (patch-clamp, CHOhERG cells); type: cell-based; settings: for IC20: human, CHO cells stably expressing hERG (CHOhERG); for IC20 / pIC50: patch-clamp, CHOhERG cells; for hERG IC20/TLR7 IC50 / hERG IC20/TLR8 IC50 / hERG IC20/TLR9 IC50: safety ratio
T3 construct: expressed in transfected cells; host or cells: CHO (Chinese hamster ovary)
Summary of the method: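 Whole-cell voltage-clamp recordings used CHO cells stably expressing human hERG, with IKhERG evoked by a voltage protocol at 0.1 Hz. Increasing compound concentrations were applied, each for 3–10 min to reach steady state, and current amplitude and kinetics were expressed relative to control (100%).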

T1 sequence (P11712 whole entry): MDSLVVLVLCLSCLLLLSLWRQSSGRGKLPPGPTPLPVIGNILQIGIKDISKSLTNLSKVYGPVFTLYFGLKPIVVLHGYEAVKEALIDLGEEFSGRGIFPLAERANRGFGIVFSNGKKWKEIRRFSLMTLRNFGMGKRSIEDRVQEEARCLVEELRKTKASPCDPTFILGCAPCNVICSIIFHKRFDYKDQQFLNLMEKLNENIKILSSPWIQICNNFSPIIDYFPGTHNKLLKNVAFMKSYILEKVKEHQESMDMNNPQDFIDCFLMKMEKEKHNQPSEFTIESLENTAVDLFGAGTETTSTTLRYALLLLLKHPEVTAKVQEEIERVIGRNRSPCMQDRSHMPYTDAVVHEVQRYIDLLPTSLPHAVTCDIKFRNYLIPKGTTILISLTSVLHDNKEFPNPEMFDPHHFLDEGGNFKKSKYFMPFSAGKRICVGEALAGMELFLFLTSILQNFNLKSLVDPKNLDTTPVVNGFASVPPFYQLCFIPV
T3 sequence (Q12809 whole entry): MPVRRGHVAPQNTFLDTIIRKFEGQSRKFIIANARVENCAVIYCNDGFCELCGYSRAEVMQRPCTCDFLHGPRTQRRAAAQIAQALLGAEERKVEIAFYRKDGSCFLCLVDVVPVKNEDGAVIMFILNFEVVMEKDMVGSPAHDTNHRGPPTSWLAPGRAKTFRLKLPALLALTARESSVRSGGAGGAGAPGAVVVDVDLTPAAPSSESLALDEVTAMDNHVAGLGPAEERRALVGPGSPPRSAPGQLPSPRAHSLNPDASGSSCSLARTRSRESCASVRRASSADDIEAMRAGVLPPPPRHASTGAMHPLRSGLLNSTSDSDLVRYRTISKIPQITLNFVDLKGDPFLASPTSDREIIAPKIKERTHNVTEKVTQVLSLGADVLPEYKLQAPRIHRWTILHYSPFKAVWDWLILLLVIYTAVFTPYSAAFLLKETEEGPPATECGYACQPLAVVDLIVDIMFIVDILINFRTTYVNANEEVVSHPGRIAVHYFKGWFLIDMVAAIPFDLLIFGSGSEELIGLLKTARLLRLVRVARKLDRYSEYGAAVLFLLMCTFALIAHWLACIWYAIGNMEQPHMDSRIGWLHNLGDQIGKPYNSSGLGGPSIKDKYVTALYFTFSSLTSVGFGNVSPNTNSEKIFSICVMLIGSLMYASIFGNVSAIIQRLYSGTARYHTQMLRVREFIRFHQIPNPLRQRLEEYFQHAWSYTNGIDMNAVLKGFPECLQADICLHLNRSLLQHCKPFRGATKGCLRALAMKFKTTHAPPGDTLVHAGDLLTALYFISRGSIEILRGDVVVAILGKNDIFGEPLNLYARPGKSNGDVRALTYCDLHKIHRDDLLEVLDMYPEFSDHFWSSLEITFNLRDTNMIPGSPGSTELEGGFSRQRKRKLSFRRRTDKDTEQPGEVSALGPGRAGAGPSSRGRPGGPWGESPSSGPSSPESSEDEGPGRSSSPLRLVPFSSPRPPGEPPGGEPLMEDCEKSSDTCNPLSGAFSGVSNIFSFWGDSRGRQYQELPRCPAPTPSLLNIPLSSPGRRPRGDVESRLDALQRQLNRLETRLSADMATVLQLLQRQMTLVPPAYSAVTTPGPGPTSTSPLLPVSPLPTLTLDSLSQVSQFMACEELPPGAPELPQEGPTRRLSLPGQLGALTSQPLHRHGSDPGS
T2 sequence (P10635 whole entry): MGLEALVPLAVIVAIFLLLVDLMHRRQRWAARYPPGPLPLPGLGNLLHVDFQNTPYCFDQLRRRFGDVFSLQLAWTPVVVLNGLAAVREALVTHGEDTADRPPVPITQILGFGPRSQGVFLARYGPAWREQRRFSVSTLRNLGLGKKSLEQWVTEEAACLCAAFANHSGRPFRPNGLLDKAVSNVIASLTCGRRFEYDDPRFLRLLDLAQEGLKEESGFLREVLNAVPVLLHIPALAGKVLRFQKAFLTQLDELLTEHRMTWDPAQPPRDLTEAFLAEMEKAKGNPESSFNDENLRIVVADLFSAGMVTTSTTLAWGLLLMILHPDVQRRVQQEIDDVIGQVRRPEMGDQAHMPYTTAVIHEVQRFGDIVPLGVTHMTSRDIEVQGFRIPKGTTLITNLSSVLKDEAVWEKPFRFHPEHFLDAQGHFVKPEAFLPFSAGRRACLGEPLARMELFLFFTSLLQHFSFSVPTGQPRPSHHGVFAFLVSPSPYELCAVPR

## CO[C@H]1CN(c2cc(C)nc(N3CCN(C[C@H]4CN(c5ccc(C#N)c6nccnc56)C[C@@H](C)O4)CC3)n2)C[C@@H]1N [Example 104, 8-[(2S,6R)-2-[[4-[4-[(3S,4S)-3-amino-4-methoxy-pyrrolidin-1-yl]-6-methyl-pyrimidin-2-yl]piperazin-1-yl]methyl]-6-methyl-morpholin-4-yl]quinoxaline-5-carbonitrile]
[1]
  inhibition at 5 min, 10 µM: -1%
[2]
  inhibition at 10 min, 10 µM: 15%
[3]
  IC20: > 10 µM
  pIC50: < 4.70
  hERG IC20/TLR7 IC50: >454
  hERG IC20/TLR8 IC50: >10000
  hERG IC20/TLR9 IC50: >142

## Cc1cc(N2CCNCC2)nc(N2CCN(C[C@H]3CN(c4ccc(C#N)c5nccnc45)C[C@@H](C)O3)CC2)n1 [Example 114, 8-[(2R,6S)-2-methyl-6-[[4-(4-methyl-6-piperazin-1-yl-pyrimidin-2-yl)piperazin-1-yl]methyl]morpholin-4-yl]quinoxaline-5-carbonitrile]
[1]
  inhibition at 5 min, 10 µM: 7.5%
[2]
  inhibition at 10 min, 10 µM: 32%
[3]
  IC20: > 10 µM
  pIC50: < 4.70
  hERG IC20/TLR7 IC50: >3333
  hERG IC20/TLR8 IC50: >10000
  hERG IC20/TLR9 IC50: >161

## [2H]c1nc2c(C#N)ccc(N3C[C@H](CN4CCN(c5nc(C)cc(N6CC(N)C6)n5)CC4)O[C@H](C)C3)c2nc1[2H] [Example 124, 8-[(2S,6R)-2-[[4-[4-(3-aminoazetidin-1-yl)-6-methyl-pyrimidin-2-yl]piperazin-1-yl]methyl]-6-methyl-morpholin-4-yl]-2,3-dideuterio-quinoxaline-5-carbonitrile]
[1]
  inhibition at 5 min, 10 µM: -2%
[2]
  inhibition at 10 min, 10 µM: 9.5%
[3]
  IC20: > 10 µM
  pIC50: < 4.70
  hERG IC20/TLR7 IC50: >2000
  hERG IC20/TLR8 IC50: >10000
  hERG IC20/TLR9 IC50: >322

## [2H]c1ccc2c(N3C[C@H](CN4CCN(c5ccc(N6CC(C)(N)C6)nc5)CC4)O[C@H](C)C3)ccc(C#N)c2n1 [Example 132, 5-[(2S,6R)-2-[[4-[6-(3-amino-3-methyl-azetidin-1-yl)-3-pyridyl]piperazin-1-yl]methyl]-6-methyl-morpholin-4-yl]-2-deuterio-quinoline-8-carbonitrile]
[1]
  inhibition at 5 min, 10 µM: -1%
[2]
  inhibition at 10 min, 10 µM: -2.5%
[3]
  IC20: > 10 µM
  pIC50: < 4.70
  hERG IC20/TLR7 IC50: >434
  hERG IC20/TLR8 IC50: >625
  hERG IC20/TLR9 IC50: >71

## [2H]c1ccc2c(N3C[C@H](CN4CCN(c5ccc(N6C[C@@H](N)[C@H](OC)C6)nc5)CC4)O[C@H](C)C3)ccc(C#N)c2n1 [Example 143, 5-[(2S,6R)-2-[[4-[6-[(3R,4R)-3-amino-4-methoxy-pyrrolidin-1-yl]-3-pyridyl]piperazin-1-yl]methyl]-6-methyl-morpholin-4-yl]-2-deuterio-quinoline-8-carbonitrile]
[1]
  inhibition at 5 min, 10 µM: -9.5%
[2]
  inhibition at 10 min, 10 µM: -30%
[3]
  IC20: > 10 µM
  pIC50: < 4.70
  hERG IC20/TLR7 IC50: >476
  hERG IC20/TLR8 IC50: >1250
  hERG IC20/TLR9 IC50: >212

## [2H]c1ccc2c(N3C[C@H](CN4CCN(c5ccc(N6CC7(CNCCO7)C6)nc5)CC4)O[C@H](C)C3)ccc(C#N)c2n1 [Example 152, 2-deuterio-5-[(2R,6S)-2-methyl-6-[[4-[6-(5-oxa-2,8-diazaspiro[3.5]nonan-2-yl)-3-pyridyl]piperazin-1-yl]methyl]morpholin-4-yl]quinoline-8-carbonitrile]
[1]
  inhibition at 5 min, 10 µM: -1%
[2]
  inhibition at 10 min, 10 µM: 12.5%

## C[C@@H]1CN(c2ccc(C#N)n3ncc(F)c23)C[C@H](CN2CCN(c3ccc(N4CC(C)(N)C4)nc3)CC2)O1 [Example 154, 4-[(2S,6R)-2-[[4-[6-(3-amino-3-methyl-azetidin-1-yl)-3-pyridyl]piperazin-1-yl]methyl]-6-methyl-morpholin-4-yl]-3-fluoro-pyrazolo[1,5-a]pyridine-7-carbonitrile]
[1]
  inhibition at 5 min, 10 µM: 2.5%
[2]
  inhibition at 10 min, 10 µM: -10.5%
[3]
  IC20: > 10 µM
  pIC50: < 4.70
  hERG IC20/TLR7 IC50: >312
  hERG IC20/TLR8 IC50: >200
  hERG IC20/TLR9 IC50: >89

## C[C@@H]1CN(c2ccc(C#N)n3ncc(F)c23)C[C@H](CN2CC(c3ccc(N4CC(C)(N)C4)nc3)C2)O1 [Example 158, 4-[(2S,6R)-2-[[3-[6-(3-amino-3-methyl-azetidin-1-yl)-3-pyridyl]azetidin-1-yl]methyl]-6-methyl-morpholin-4-yl]-3-fluoro-pyrazolo[1,5-a]pyridine-7-carbonitrile]
[1]
  inhibition at 5 min, 10 µM: -5.5%
[2]
  inhibition at 10 min, 10 µM: -7.5%

## C[C@@H]1CN(c2ccc(C#N)n3ncc(F)c23)C[C@H](CN2CC(c3ccc(N4CC(C)(N)C4)cc3)C2)O1 [Example 160, 4-[(2S,6R)-2-[[3-[4-(3-amino-3-methyl-azetidin-1-yl)phenyl]azetidin-1-yl]methyl]-6-methyl-morpholin-4-yl]-3-fluoro-pyrazolo[1,5-a]pyridine-7-carbonitrile]
[1]
  inhibition at 5 min, 10 µM: -1.5%
[2]
  inhibition at 10 min, 10 µM: 17%

## [2H]c1ccc2c(N3C[C@H](CN4CCN(c5ccc(N[C@H]6CNC[C@H]6F)nc5)CC4)O[C@H](C)C3)ccc(C#N)c2n1 [Example 162, 2-deuterio-5-[(2S,6R)-2-[[4-[6-[[(3S,4R)-4-fluoropyrrolidin-3-yl]amino]-3-pyridyl]piperazin-1-yl]methyl]-6-methyl-morpholin-4-yl]quinoline-8-carbonitrile]
[1]
  inhibition at 5 min, 10 µM: -2.5%
[2]
  inhibition at 10 min, 10 µM: 1%

## C[C@@H]1CN(c2ccc(C#N)n3nccc23)C[C@H](CN2CC(c3ccc(N4CC(C)(N)C4)cc3)C2)O1 [Example 163, 4-[(2S,6R)-2-[[3-[4-(3-amino-3-methyl-azetidin-1-yl)phenyl]azetidin-1-yl]methyl]-6-methyl-morpholin-4-yl]pyrazolo[1,5-a]pyridine-7-carbonitrile]
[1]
  inhibition at 5 min, 10 µM: -4.5%
[2]
  inhibition at 10 min, 10 µM: 6.5%

## CO[C@@H]1CN(c2ccc(C3CN(C[C@H]4CN(c5ccc(C#N)n6ncc(F)c56)C[C@@H](C)O4)C3)cn2)C[C@H]1N [Example 164, 4-[(2S,6R)-2-[[3-[6-[(3R,4R)-3-amino-4-methoxy-pyrrolidin-1-yl]-3-pyridyl]azetidin-1-yl]methyl]-6-methyl-morpholin-4-yl]-3-fluoro-pyrazolo[1,5-a]pyridine-7-carbonitrile]
[1]
  inhibition at 5 min, 10 µM: -1%
[2]
  inhibition at 10 min, 10 µM: 26%

## C[C@@H]1CN(c2ccc(C#N)n3ncc(F)c23)C[C@H](CN2CC(c3ccc(N4C[C@@H]5C[C@H]4CN5)nc3)C2)O1 [Example 165, 4-[(2S,6R)-2-[[3-[6-[(1S,4S)-2,5-diazabicyclo[2.2.1]heptan-2-yl]-3-pyridyl]azetidin-1-yl]methyl]-6-methyl-morpholin-4-yl]-3-fluoro-pyrazolo[1,5-a]pyridine-7-carbonitrile]
[1]
  inhibition at 5 min, 10 µM: -8.5%
[2]
  inhibition at 10 min, 10 µM: 17.5%

## CO[C@@H]1CN(c2ccc(N3CCN(C[C@H]4CN(c5ccc(C#N)n6ncc(F)c56)C[C@@H](C)O4)CC3)cn2)C[C@H]1N [Example 166, 4-[(2S,6R)-2-[[4-[6-[(3R,4R)-3-amino-4-methoxy-pyrrolidin-1-yl]-3-pyridyl]piperazin-1-yl]methyl]-6-methyl-morpholin-4-yl]-3-fluoro-pyrazolo[1,5-a]pyridine-7-carbonitrile]
[1]
  inhibition at 5 min, 10 µM: -3.5%
[2]
  inhibition at 10 min, 10 µM: 20%
[3]
  IC20: 8 µM
  pIC50: < 4.70
  hERG IC20/TLR7 IC50: 380
  hERG IC20/TLR8 IC50: 258
  hERG IC20/TLR9 IC50: 173
